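Following 48 hours of exposure in 96-well plates, responses at five concentrations were used to interpolate endpoints linearly. GI50 is the concentration that inhibits growth by half. TGI: total growth inhibition.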
Assays:
Assay in all cases: NCI anticancer screen, dose series, 48 h
[1] = system: NCI-H522 lung
[2] = system: HS 578T breast
[3] = system: IGROV1 ovarian
[4] = system: A498 renal
[5] = system: OVCAR-3 ovarian
[6] = system: NCI-H460 lung
[7] = system: KM12 colon
[8] = system: HT29 colon
[9] = system: SNB-19 CNS
[10] = system: SNB-75 CNS
[11] = system: OVCAR-5 ovarian
[12] = system: CAKI-1 renal
[13] = system: MCF7 breast
[14] = system: COLO 205 colon
[15] = system: HOP-92 NSCLC
[16] = system: PC-3 prostate
[17] = system: SK-OV-3 ovarian
[18] = system: SF-295 CNS
[19] = system: NCI-H226 lung
[20] = system: T-47D breast
[21] = system: UO-31 renal
[22] = system: NCI/ADR-RES ovarian
[23] = system: HCT-116 colon
[24] = system: CCRF-CEM leukemia
[25] = system: M14 melanoma
[26] = system: K-562 leukemia
[27] = system: SF-539 CNS
[28] = system: MDA-MB-231 breast
[29] = system: RXF 393 renal
[30] = system: SW-620 colon
[31] = system: HCT-15 colon
[32] = system: ACHN renal
[33] = system: RPMI-8226 leukemia
[34] = system: OVCAR-8 ovarian
[35] = system: OVCAR-4 ovarian
[36] = system: UACC-62 melanoma
[37] = system: MDA-MB-435
[38] = system: DU-145 prostate
[39] = system: MALME-3M melanoma
[40] = system: SK-MEL-28 melanoma
[41] = system: SK-MEL-2 melanoma
[42] = system: NCI-H23 lung
[43] = system: HCC-2998 colon
[44] = system: TK-10 renal
[45] = system: SR leukemia
[46] = system: SN12C renal
[47] = system: SK-MEL-5 melanoma
[48] = system: A549 NSCLC
[49] = system: U251 CNS
[50] = system: UACC-257 melanoma
[51] = system: 786-0 renal
[52] = system: BT-549 breast
[53] = system: LOX IMVI melanoma
[54] = system: HOP-62 NSCLC
[55] = system: HL-60(TB) leukemia
[56] = system: EKVX NSCLC
[57] = system: MOLT-4 leukemia
[58] = system: SF-268 CNS

Cn1ccnc1C(=O)/C=C/c1ccc(C(=O)Nc2ccccc2O)cc1
GI50 [1]: 1860 nM
TGI [1]: 5470 nM
GI50 [2]: 2950 nM
TGI [2]: 15900 nM
GI50 [3]: 1970 nM
TGI [3]: 4880 nM
GI50 [4]: 2070 nM
TGI [4]: 6180 nM
GI50 [5]: 2320 nM
TGI [5]: 6370 nM
GI50 [6]: 1670 nM
TGI [6]: 5600 nM
GI50 [7]: 1960 nM
TGI [7]: 4440 nM
GI50 [8]: 2400 nM
TGI [8]: 7300 nM
GI50 [9]: 2600 nM
TGI [9]: 11500 nM
GI50 [10]: 918 nM
TGI [10]: 8580 nM
GI50 [11]: 2390 nM
TGI [11]: 7090 nM
GI50 [12]: 1650 nM
TGI [12]: 4030 nM
GI50 [13]: 1770 nM
TGI [13]: 6510 nM
GI50 [14]: 2510 nM
TGI [14]: 5150 nM
GI50 [15]: 2110 nM
TGI [15]: 6680 nM
GI50 [16]: 1890 nM
TGI [16]: 4800 nM
GI50 [17]: 4130 nM
TGI [17]: 14500 nM
GI50 [18]: 3530 nM
TGI [18]: 12100 nM
GI50 [19]: 2350 nM
TGI [19]: 7800 nM
GI50 [20]: 2680 nM
TGI [20]: 10800 nM
GI50 [21]: 1240 nM
TGI [21]: 2500 nM
GI50 [22]: 2860 nM
TGI [22]: 22600 nM
GI50 [23]: 866 nM
TGI [23]: 2640 nM
GI50 [24]: 1130 nM
TGI [24]: 8250 nM
GI50 [25]: 1820 nM
TGI [25]: 4280 nM
GI50 [26]: 939 nM
TGI [26]: 34000 nM
GI50 [27]: 1560 nM
TGI [27]: 3500 nM
GI50 [28]: 3260 nM
TGI [28]: 12300 nM
GI50 [29]: 1620 nM
TGI [29]: 3410 nM
GI50 [30]: 1620 nM
TGI [30]: 4120 nM
GI50 [31]: 1420 nM
TGI [31]: 5490 nM
GI50 [32]: 1990 nM
TGI [32]: 4010 nM
GI50 [33]: 620 nM
TGI [33]: 3800 nM
GI50 [34]: 3290 nM
TGI [34]: 14900 nM
GI50 [35]: 2500 nM
TGI [35]: 12500 nM
GI50 [36]: 1930 nM
TGI [36]: 5010 nM
GI50 [37]: 2220 nM
TGI [37]: 4850 nM
GI50 [38]: 1950 nM
TGI [38]: 5230 nM
GI50 [39]: 1630 nM
TGI [39]: 3810 nM
GI50 [40]: 2110 nM
TGI [40]: 5070 nM
GI50 [41]: 5900 nM
TGI [41]: 21800 nM
GI50 [42]: 2910 nM
TGI [42]: 9670 nM
GI50 [43]: 2290 nM
TGI [43]: 4260 nM
GI50 [44]: 3200 nM
TGI [44]: 12700 nM
GI50 [45]: 307 nM
TGI [45]: 6550 nM
GI50 [46]: 2790 nM
TGI [46]: 10100 nM
GI50 [47]: 3360 nM
TGI [47]: 11100 nM
GI50 [48]: 3030 nM
TGI [48]: 13600 nM
GI50 [49]: 1460 nM
TGI [49]: 4030 nM
GI50 [50]: 2510 nM
TGI [50]: 13300 nM
GI50 [51]: 1980 nM
TGI [51]: 4640 nM
GI50 [52]: 1800 nM
TGI [52]: 5050 nM
GI50 [53]: 1380 nM
TGI [53]: 3120 nM
GI50 [54]: 4600 nM
TGI [54]: 15100 nM
GI50 [55]: 2130 nM
TGI [55]: 5730 nM
GI50 [56]: 2450 nM
TGI [56]: 7090 nM
GI50 [57]: 2380 nM
TGI [57]: 8180 nM
GI50 [58]: 2390 nM
TGI [58]: 7200 nM

O=c1oc2ccc(F)cc2c(=O)n1-c1ccc(Cl)cc1F
GI50 [1]: 363 nM
TGI [1]: 4500 nM
GI50 [2]: 572 nM
TGI [2]: 5770 nM
GI50 [3]: 532 nM
TGI [3]: > 45800 nM
GI50 [4]: 240 nM
TGI [4]: 796 nM
GI50 [5]: 550 nM
TGI [5]: 12500 nM
GI50 [6]: 619 nM
TGI [6]: 12200 nM
GI50 [7]: 2110 nM
TGI [7]: 5840 nM
GI50 [8]: 3290 nM
TGI [8]: > 34200 nM
GI50 [9]: 541 nM
TGI [9]: > 100000 nM
GI50 [10]: 375 nM
TGI [10]: 2650 nM
GI50 [11]: 3730 nM
TGI [11]: > 100000 nM
GI50 [12]: 360 nM
TGI [12]: 3410 nM
GI50 [13]: 1950 nM
TGI [13]: > 29000 nM
GI50 [14]: 2140 nM
TGI [14]: 4870 nM
GI50 [15]: 205 nM
TGI [15]: 613 nM
GI50 [16]: 1500 nM
TGI [16]: 6320 nM
GI50 [17]: 584 nM
TGI [17]: 2580 nM
GI50 [18]: 1820 nM
TGI [18]: 3660 nM
GI50 [19]: 1220 nM
TGI [19]: 4910 nM
GI50 [20]: 661 nM
TGI [20]: 5460 nM
GI50 [21]: 264 nM
TGI [21]: 2520 nM
GI50 [22]: 1180 nM
TGI [22]: 9310 nM
GI50 [23]: 563 nM
TGI [23]: 2820 nM
GI50 [24]: 2620 nM
TGI [24]: 13000 nM
GI50 [25]: 594 nM
TGI [25]: 4550 nM
GI50 [26]: 509 nM
TGI [26]: > 100000 nM
GI50 [27]: 564 nM
TGI [27]: 6790 nM
GI50 [28]: 675 nM
TGI [28]: 6330 nM
GI50 [29]: 974 nM
TGI [29]: 4480 nM
GI50 [30]: 1240 nM
TGI [30]: 21200 nM
GI50 [31]: 1260 nM
TGI [31]: 10300 nM
GI50 [32]: 700 nM
TGI [32]: 11800 nM
GI50 [33]: 356 nM
TGI [33]: 1900 nM
GI50 [34]: 2050 nM
TGI [34]: 26200 nM
GI50 [35]: 737 nM
TGI [35]: 7680 nM
GI50 [36]: 330 nM
TGI [36]: 1560 nM
GI50 [37]: 674 nM
TGI [37]: 5480 nM
GI50 [38]: 1100 nM
TGI [38]: 22000 nM
GI50 [39]: 403 nM
TGI [39]: 2510 nM
GI50 [40]: 456 nM
TGI [40]: 2920 nM
GI50 [41]: 420 nM
TGI [41]: 2530 nM
GI50 [42]: 604 nM
TGI [42]: 5160 nM
GI50 [43]: 2890 nM
TGI [43]: 10800 nM
GI50 [44]: 3730 nM
TGI [44]: 12200 nM
GI50 [45]: 619 nM
TGI [45]: > 39100 nM
GI50 [46]: 495 nM
TGI [46]: 6920 nM
GI50 [47]: 290 nM
TGI [47]: 890 nM
GI50 [48]: 2170 nM
TGI [48]: > 100000 nM
GI50 [49]: 868 nM
TGI [49]: > 59800 nM
GI50 [50]: 660 nM
TGI [50]: 4540 nM
GI50 [51]: 2800 nM
TGI [51]: 8850 nM
GI50 [52]: 488 nM
TGI [52]: 2430 nM
GI50 [53]: 527 nM
TGI [53]: 6970 nM
GI50 [54]: 1570 nM
TGI [54]: 6530 nM
GI50 [55]: 578 nM
TGI [55]: 2730 nM
GI50 [56]: 1610 nM
TGI [56]: 8140 nM
GI50 [57]: 2000 nM
TGI [57]: 5270 nM
GI50 [58]: 879 nM
TGI [58]: 11700 nM

Source: PubChem BioAssay (NCI)
